Source: PubChem BioAssay AID248 (DTP/NCI, 2004)
“And” between values parts separate entries of the source, which are not always exact repeats. Equal entries are not always repeated. Toxic doses and inconclusive results are not listed. Cut-off read from the data, not from the text of the source: active = T/C of 150% or more; inactive = T/C below 125%.

System: L1210 leukemia ip in BDF1 mice, survival T/C
Assay: NCI In Vivo Anticancer Drug Screen. Data for tumor model L1210 Leukemia (intraperitoneal) in B6D2F1 (BDF1) mice
Conditions: endpoint: mean survival time, higher = longer survival
Procedure, shortened: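 Read-out is survival time, reported as the treated-group measurement over the vehicle-control measurement.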

[1] = dose: 100.0 mg/kg/injection, schedule: Q01DX001 (ip), vehicle: carboxymethylcellulose (CMC)
[2] = dose: 200.0 mg/kg/injection, schedule: Q01DX001 (ip), vehicle: carboxymethylcellulose (CMC)
[3] = dose: 400.0 mg/kg/injection, schedule: Q01DX001 (ip), vehicle: carboxymethylcellulose (CMC)
[4] = dose: 100.0 mg/kg/injection, schedule: Q01DX009 (ip), vehicle: Klucel (hydroxypropylcellulose) (HPC)
[5] = dose: 100.0 mg/kg/injection, schedule: Q04DX003 (ip), vehicle: Klucel (hydroxypropylcellulose) (HPC)
[6] = dose: 200.0 mg/kg/injection, schedule: Q01DX009 (ip), vehicle: Klucel (hydroxypropylcellulose) (HPC)
[7] = dose: 200.0 mg/kg/injection, schedule: Q04DX003 (ip), vehicle: Klucel (hydroxypropylcellulose) (HPC)
[8] = dose: 400.0 mg/kg/injection, schedule: Q04DX003 (ip), vehicle: Klucel (hydroxypropylcellulose) (HPC)
[9] = dose: 25.0 mg/kg/injection, schedule: Q04DX003 (ip), vehicle: Klucel (hydroxypropylcellulose) (HPC)
[10] = dose: 50.0 mg/kg/injection, schedule: Q04DX003 (ip), vehicle: Klucel (hydroxypropylcellulose) (HPC)
[11] = dose: 100.0 mg/kg/injection, schedule: Q04DX003 (ip), vehicle: saline with Tween-80
[12] = dose: 100.0 mg/kg/injection, schedule: Q01DX001 (ip), vehicle: saline
[13] = dose: 200.0 mg/kg/injection, schedule: Q01DX001 (ip), vehicle: saline
[14] = dose: 400.0 mg/kg/injection, schedule: Q01DX001 (ip), vehicle: saline
[15] = dose: 12.5 mg/kg/injection, schedule: Q01DX009 (ip), vehicle: saline
[16] = dose: 25.0 mg/kg/injection, schedule: Q01DX009 (ip), vehicle: saline
[17] = dose: 200.0 mg/kg/injection, schedule: Q04DX003 (ip), vehicle: saline with Tween-80
[18] = dose: 400.0 mg/kg/injection, schedule: Q04DX003 (ip), vehicle: saline with Tween-80
[19] = dose: 100.0 mg/kg/injection, schedule: Q04DX003 (ip), vehicle: saline
[20] = dose: 200.0 mg/kg/injection, schedule: Q04DX003 (ip), vehicle: saline
[21] = dose: 400.0 mg/kg/injection, schedule: Q04DX003 (ip), vehicle: saline

Measured: T/C

Cc1cc(Cl)ccc1OC(=O)Nc1ccc(Cl)cc1
inactive: [1] 103 % of control | dose: 100.0 mg/kg/injection, schedule: Q01DX009 (ip), vehicle: carboxymethylcellulose (CMC) 95 % of control and 101 % of control | dose: 100.0 mg/kg/injection, schedule: Q04DX002 (ip), vehicle: Klucel (hydroxypropylcellulose) (HPC) 98 % of control | dose: 100.0 mg/kg/injection, schedule: Q04DX002 (ip), vehicle: carboxymethylcellulose (CMC) 96 % of control and 90 % of control | [2] 111 % of control | dose: 200.0 mg/kg/injection, schedule: Q01DX009 (ip), vehicle: carboxymethylcellulose (CMC) 97 % of control and 111 % of control | dose: 200.0 mg/kg/injection, schedule: Q04DX002 (ip), vehicle: Klucel (hydroxypropylcellulose) (HPC) 92 % of control | dose: 200.0 mg/kg/injection, schedule: Q04DX002 (ip), vehicle: carboxymethylcellulose (CMC) 94 % of control and 97 % of control | [3] 98 % of control | dose: 400.0 mg/kg/injection, schedule: Q01DX009 (ip), vehicle: carboxymethylcellulose (CMC) 97 % of control and 86 % of control | dose: 400.0 mg/kg/injection, schedule: Q04DX002 (ip), vehicle: Klucel (hydroxypropylcellulose) (HPC) 106 % of control | dose: 400.0 mg/kg/injection, schedule: Q04DX002 (ip), vehicle: carboxymethylcellulose (CMC) 94 % of control and 90 % of control

N#CC(CC(=O)c1ccc2c(c1)OCO2)c1ccc2c(c1)OCO2 (stereo unspecified)
inactive: [4] 101 % of control | [5] 95 % of control | [6] 101 % of control | [7] 98 % of control | dose: 400.0 mg/kg/injection, schedule: Q01DX009 (ip), vehicle: Klucel (hydroxypropylcellulose) (HPC) 97 % of control | [8] 101 % of control

CC1(C)N=C(N)N=C(N)N1c1cc(Cl)cc(CCNC(=O)Nc2ccc(S(=O)(=O)F)cc2)c1
inactive: dose: 25.0 mg/kg/injection, schedule: Q01DX001 (ip), vehicle: saline with Tween-80 98 % of control | dose: 50.0 mg/kg/injection, schedule: Q01DX001 (ip), vehicle: saline with Tween-80 98 % of control | dose: 100.0 mg/kg/injection, schedule: Q01DX001 (ip), vehicle: saline with Tween-80 106 % of control

C#CCOP(=O)(C#CC)OCC#C
inactive: [9] 93 % of control | [10] 97 % of control | [5] 98 % of control | [11] 95 % of control

Cn1ncc2cncnc21
inactive: [12] 103 % of control | [13] 103 % of control | [14] 103 % of control

CCCCCCCCOP(=O)(OCCCCCCCC)c1ccccc1
inactive: dose: 10.0 mg/kg/injection, schedule: Q01DX001 (ip), vehicle: acetone 91 % of control | dose: 10.0 mg/kg/injection, schedule: Q04DX003 (ip), vehicle: acetone 97 % of control | [15] 94 % of control | dose: 20.0 mg/kg/injection, schedule: Q01DX001 (ip), vehicle: acetone 91 % of control | dose: 20.0 mg/kg/injection, schedule: Q04DX003 (ip), vehicle: acetone 92 % of control | [16] 94 % of control | dose: 40.0 mg/kg/injection, schedule: Q01DX001 (ip), vehicle: acetone 86 % of control | dose: 40.0 mg/kg/injection, schedule: Q04DX003 (ip), vehicle: acetone 97 % of control | dose: 50.0 mg/kg/injection, schedule: Q01DX009 (ip), vehicle: saline 94 % of control | dose: 75.0 mg/kg/injection, schedule: Q01DX009 (ip), vehicle: saline 112 % of control | dose: 115.0 mg/kg/injection, schedule: Q01DX009 (ip), vehicle: saline 106 % of control | dose: 170.0 mg/kg/injection, schedule: Q01DX009 (ip), vehicle: saline 98 % of control

CCC(=O)Nc1cc(C)c(C)cc1C
inactive: [4] 100 % of control | [6] 105 % of control

CCN(CC)c1ccc(N=Cc2ccccc2S(=O)(=O)O)cc1
inactive: dose: 6.25 mg/kg/injection, schedule: Q01DX009 (ip), vehicle: saline 95 % of control | dose: 6.25 mg/kg/injection, schedule: Q04DX003 (ip), vehicle: saline sonified 97 % of control | [15] 96 % of control | dose: 12.5 mg/kg/injection, schedule: Q04DX003 (ip), vehicle: saline sonified 103 % of control | [16] 93 % of control | dose: 25.0 mg/kg/injection, schedule: Q04DX003 (ip), vehicle: saline sonified 110 % of control

C=CCCCCCCCCC(=O)OC
inactive: [12] 100 % of control | [13] 96 % of control | [14] 100 % of control

S=C1SCN(C(c2ccccc2)c2ccccc2)CN1C(c1ccccc1)c1ccccc1
inactive: [11] 95 % of control | [17] 94 % of control | [18] 96 % of control

CCN(CC)CC(Cl)COc1ccccc1C (stereo unspecified)
inactive: [12] 91 % of control | [13] 94 % of control

CCC(C(O)c1ccc(F)cc1)C(O)(C(F)(F)F)C(F)(F)F (stereo unspecified)
inactive: dose: 50.0 mg/kg/injection, schedule: Q01DX009 (ip), vehicle: other 93 % of control | dose: 100.0 mg/kg/injection, schedule: Q01DX009 (ip), vehicle: other 102 % of control | [11] 101 % of control | dose: 200.0 mg/kg/injection, schedule: Q01DX009 (ip), vehicle: other 98 % of control | [17] 100 % of control | [18] 90 % of control

CCN(CC)CCOc1ccc(C(C)(C)c2ccc(OCCN(CC)CC)cc2)cc1
inactive: dose: 100.0 mg/kg/injection, schedule: Q04DX002 (ip), vehicle: saline 108 % of control | dose: 200.0 mg/kg/injection, schedule: Q04DX002 (ip), vehicle: saline 108 % of control

CCCCN(CCCC)CC(=O)Nc1ccc(C(=O)OCC(C)C)cc1
inactive: dose: 20.0 mg/kg/injection, schedule: Q01DX Z (ip), vehicle: saline 97 % of control | dose: 30.0 mg/kg/injection, schedule: Q01DX Z (ip), vehicle: saline 98 % of control | dose: 45.0 mg/kg/injection, schedule: Q01DX Z (ip), vehicle: saline 106 % of control | dose: 68.0 mg/kg/injection, schedule: Q01DX Z (ip), vehicle: saline 97 % of control

CC(C)Cc1c(N)nc(=S)[nH]c1C(=O)O
inactive: dose: 100.0 mg/kg/injection, schedule: Q01DX001 (ip), vehicle: Klucel (hydroxypropylcellulose) (HPC) 100 % of control | [19] 100 % of control | dose: 200.0 mg/kg/injection, schedule: Q01DX001 (ip), vehicle: Klucel (hydroxypropylcellulose) (HPC) 100 % of control | [20] 94 % of control | dose: 400.0 mg/kg/injection, schedule: Q01DX001 (ip), vehicle: Klucel (hydroxypropylcellulose) (HPC) 109 % of control | [21] 94 % of control

NC(=O)C(=O)NCCCCN1CC1
inactive: dose: 12.5 mg/kg/injection, schedule: Q04DX003 (ip), vehicle: Klucel (hydroxypropylcellulose) (HPC) 97 % of control | [9] 97 % of control | [10] 102 % of control | [5] 114 % of control

CCNC(=O)CCC(N)C(=O)O (stereo unspecified)
inactive: dose: 100.0 mg/kg/injection, schedule: Q01DX009 (ip), vehicle: saline 97 % of control | [19] 97 % of control | dose: 200.0 mg/kg/injection, schedule: Q01DX009 (ip), vehicle: saline 97 % of control | [20] 101 % of control | dose: 400.0 mg/kg/injection, schedule: Q01DX009 (ip), vehicle: saline 95 % of control | [21] 101 % of control

Cc1cc(N(CCCl)CCCl)ccc1C=Nc1ccc(-c2csc(-c3ccccc3)n2)cc1
inactive: dose: 50.0 mg/kg/injection, schedule: Q01DX001 (ip), vehicle: carboxymethylcellulose (CMC) 103 % of control | [1] 94 % of control | [2] 97 % of control | [3] 100 % of control

CCc1cccc(OS(=O)(=O)c2ccc([N+](=O)[O-])cc2)c1
inactive: dose: 25.0 mg/kg/injection, schedule: Q01DX009 (ip), vehicle: Klucel (hydroxypropylcellulose) (HPC) 95 % of control | [4] 92 % of control

O=C(Nc1cccc2ccccc12)Oc1ccccc1Cc1ccccc1
inactive: [5] 93 % of control | [7] 93 % of control | [8] 96 % of control

CC1CC(=O)NC1=O (stereo unspecified)
inactive: [19] 115 % of control | [20] 116 % of control | [21] 112 % of control
